The structures appear in SMILES notation. Counter-ions that a name gives are not always drawn.

For orientation: IC50 means the concentration that gives 50% inhibition.

Active Human ERK2 (hERK2), sequence (P28482 whole entry): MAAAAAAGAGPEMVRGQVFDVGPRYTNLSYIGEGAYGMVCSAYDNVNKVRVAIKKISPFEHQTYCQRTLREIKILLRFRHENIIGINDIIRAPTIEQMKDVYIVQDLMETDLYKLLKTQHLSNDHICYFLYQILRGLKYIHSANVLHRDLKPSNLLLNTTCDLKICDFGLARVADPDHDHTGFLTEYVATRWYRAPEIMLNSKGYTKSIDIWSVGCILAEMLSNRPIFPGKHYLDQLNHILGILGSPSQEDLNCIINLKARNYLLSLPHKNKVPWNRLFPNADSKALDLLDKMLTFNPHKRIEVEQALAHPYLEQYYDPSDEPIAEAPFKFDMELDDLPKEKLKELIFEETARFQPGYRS

The first assay has as its target Active Human ERK2 (hERK2) (Homo sapiens (Human), UniProt P28482). Kind of assay: Active Human ERK2 (hERK2) Activity Assay (IMAP-FP). The assay is classed as biochemical. Conditions: phosphorylated active hERK2, 30 μM ATP; average; read-out: ERK 2 Human average IC50. How it is done:
Assays Active Human ERK2 (hERK2) Activity Assay:
Activated ERK2 activity was determined in an IMAP-FP assay (Molecular Devices). […] The final reaction in each well of 25 μL consists of 0.5 nM hERK2, 900 nM unlabeled peptide, 80 nM labeled-peptide, and 30 μM ATP. Phosphorylation reactions were allowed to proceed for 60 minutes and were immediately quenched by the addition of […] IMAP detection beads (1:1000 dilutions) in IMAP binding buffer (Molecular Devices) with 24 mM NaCl. Plates were read on EnVision reader after 60 minutes binding equilibration using Fluorescence Polarization protocol (Perkin Elmer).
On to `C[C@@H](NC(=O)Nc1cc2[nH]nc(-c3ccc4c(c3)OCCO4)c2cn1)c1ccccc1` [Example 88, 1-[3-(2,3-dihydro-1,4-benzodioxin-6-yl)-1H-pyrazolo[4,3-c]pyridin-6-yl]-3-[(1R)-1-phenylethyl]urea], for which the IC50 came to 1.16 nM.
On the same count and under the same terms, under `C[C@@H](NC(=O)Nc1cc2[nH]nc(-c3ccc(S(C)(=O)=O)cc3)c2cn1)c1ccccc1` [Example 89, 1-{3-[4-(methylsulfonyl)phenyl]-1H-pyrazolo[4,3-c]pyridin-6-yl}-3-[(1R)-1-phenylethyl]urea] stands 1.33 nM.
Still for that read-out and setting: to `C[C@@H](NC(=O)Nc1cc2[nH]nc(-c3ccn(C)n3)c2cn1)c1ccccc1` [Example 90, 1-[3-(1-methyl-1H-pyrazol-3-yl)-1H-pyrazolo[4,3-c]pyridin-6-yl]-3-[(1R)-1-phenylethyl]urea] belongs 2.19 nM; to `Cc1cc(-c2n[nH]c3cc(NC(=O)N[C@H](C)c4ccccc4)ncc23)cnn1` [Example 91, 1-[3-(6-methylpyridazin-4-yl)-1H-pyrazolo[4,3-c]pyridin-6-yl]-3-[(1R)-1-phenylethyl]urea], 0.878 nM; to `Cc1cc(-c2n[nH]c3c(Cl)c(NC(=O)NCc4ccccc4)ncc23)ccn1` [Example 92, 1-benzyl-3-[7-chloro-3-(2-methylpyridin-4-yl)-1H-pyrazolo[4,3-c]pyridin-6-yl]urea], 6.25 nM.
Still for that read-out and setting: to `C[C@@H](NC(=O)Nc1cc2[nH]nc(-c3cc[n+]([O-])cc3)c2cn1)c1ccccc1` [Example 93, 1-[3-(1-oxidopyridin-4-yl)-1H-pyrazolo[4,3-c]pyridin-6-yl]-3-[(1R)-1-phenylethyl]urea] belongs 0.383 nM; to `Cc1cc(-c2n[nH]c3cc(NC(=S)NCc4ccccc4)ncc23)ccn1` [Example 94, 6-[(benzylcarbamothioyl)amino]-3-(2-methylpyridin-4-yl)-1H-pyrazolo[4,3-c]pyridin-5-ium trifluoroacetate], 11.9 nM.
`Cc1cc(-c2n[nH]c3c(F)c(NC(=O)N[C@H](C)c4ccccc4)ncc23)ccn1` [Example 95, 1-[7-fluoro-3-(2-methylpyridin-4-yl)-1H-pyrazolo[4,3-c]pyridin-6-yl]-3-[(1R)-1-phenylethyl]urea]: the IC50 is 0.235 nM.
In the case of `COCCNC(=O)c1n[nH]c2cc(NC(=O)N[C@H](C)c3ccccc3)ncc12` [Example 116, N-(2-methoxyethyl)-6-({[(1R)-1-phenylethyl]carbamoyl}amino)-1H-pyrazolo[4,3-c]pyridine-3-carboxamide], the half-inhibitory concentration (IC50) came to 10.7 nM.
As to `C[C@@H](NC(=O)Nc1cc2[nH]nc(C(=O)NCc3nc4ccncc4[nH]3)c2cn1)c1ccccc1` [Example 117], the IC50 stood at 5.47 nM.
The same measure, in the same setting: to `CSC1CN(C(=O)c2n[nH]c3cc(NC(=O)N[C@H](C)c4ccccc4)ncc23)C1` [Example 118] belongs 501 nM; to `C[C@@H](NC(=O)Nc1cc2[nH]nc(C(=O)NCC3(N(C)C)CCC3)c2cn1)c1ccccc1` [Example 119], 211 nM; to `C[C@@H](NC(=O)Nc1cc2[nH]nc(C(=O)N3CC(=O)N(C)C3)c2cn1)c1ccccc1` [Example 120], 60.4 nM.
The same measure, in the same setting: to `C[C@@H](NC(=O)Nc1cc2[nH]nc(C(=O)NCC3CCOC3)c2cn1)c1ccccc1` (stereo partly drawn) [Example 121] belongs 3.83 nM; to `C[C@@H](NC(=O)Nc1cc2[nH]nc(C(=O)NCc3cccnn3)c2cn1)c1ccccc1` [Example 122], 2.55 nM; to `C[C@@H](NC(=O)Nc1cc2[nH]nc(C(=O)NCC(O)C(F)F)c2cn1)c1ccccc1` (stereo partly drawn) [Example 123], 4.49 nM.
`C[C@@H](NC(=O)Nc1cc2[nH]nc(C(=O)NCC3(O)CC3)c2cn1)c1ccccc1` [Example 124]: the half-inhibitory concentration (IC50) worked out at 6.38 nM.
The same measure, in the same setting: to `C[C@@H](NC(=O)Nc1cc2[nH]nc(C(=O)NCC(F)(F)CN3CCOCC3)c2cn1)c1ccccc1` [Example 125] belongs 6.53 nM.
Turning to `C[C@@H](NC(=O)Nc1cc2[nH]nc(C(=O)NCCC3(O)CCCC3)c2cn1)c1ccccc1` [Example 126], the half-maximal inhibitory concentration (IC50) is 8.33 nM.
The same measure, in the same setting: to `C[C@@H](NC(=O)Nc1cc2[nH]nc(C(=O)NCC34CC5CC(C3)C(O)C(C5)C4)c2cn1)c1ccccc1` (stereo partly drawn) [Example 127] belongs 14.7 nM; to `C[C@@H](NC(=O)Nc1cc2[nH]nc(C(=O)NCC(F)(F)CN3CCCC3)c2cn1)c1ccccc1` [Example 128], 19 nM; to `C[C@@H](NC(=O)Nc1cc2[nH]nc(C(=O)NCC3CCN(C4CC4)C3)c2cn1)c1ccccc1` (stereo partly drawn) [Example 129], 13.6 nM.
On the same count and under the same terms, to `CO[C@H]1CN(C(=O)c2n[nH]c3cc(NC(=O)N[C@H](C)c4ccccc4)ncc23)C[C@@H]1O` [Example 130] belongs 1970 nM; to `COC(C)CNC(=O)c1n[nH]c2cc(NC(=O)N[C@H](C)c3ccccc3)ncc12` (stereo partly drawn) [Example 131], 13.4 nM.
In the case of `C[C@@H](NC(=O)Nc1cc2[nH]nc(C(=O)NCC3CCCC(O)C3)c2cn1)c1ccccc1` (stereo partly drawn) [Example 132], the IC50 came out at 3.2 nM.
Same read-out and setting: under `COCC(O)CNC(=O)c1n[nH]c2cc(NC(=O)N[C@H](C)c3ccccc3)ncc12` (stereo partly drawn) [Example 133] stands 11 nM; under `C[C@@H](NC(=O)Nc1cc2[nH]nc(C(=O)N[C@@H]3CCN(O)C3=O)c2cn1)c1ccccc1` [Example 134], 103 nM; under `CC(C)CC(O)CNC(=O)c1n[nH]c2cc(NC(=O)N[C@H](C)c3ccccc3)ncc12` (stereo partly drawn) [Example 135], 14.6 nM.
Still for that read-out and setting: under `C[C@@H](NC(=O)Nc1cc2[nH]nc(C(=O)NCC3(O)CCC3)c2cn1)c1ccccc1` [Example 136] stands 11.9 nM; under `CNC(=O)c1n[nH]c2cc(NC(=O)N[C@H](C)c3ccccc3)ncc12` [Example 137], 4.54 nM.
Same read-out and setting: under `CCNC(=O)c1n[nH]c2cc(NC(=O)N[C@H](C)c3ccccc3)ncc12` [Example 138] stands 5.28 nM; under `C[C@@H](NC(=O)Nc1cc2[nH]nc(C(=O)N(C)C)c2cn1)c1ccccc1` [Example 139], 570 nM.
As for `O=C(NCc1ccc(F)cc1)Nc1cc2[nH]nc(C3CC3)c2cn1` [Example 140, 1-(3-cyclopropyl-1H-pyrazolo[4,3-c]pyridin-6-yl)-3-(4-fluorobenzyl)urea], the IC50 was found to be 23.5 nM.
Regarding `C[C@@H](NC(=O)Nc1cc2[nH]nc(C3CC3)c2cn1)c1ccc(F)cc1` [Example 141], the IC50 stood at 2.43 nM.
Take `O=C(NCc1ccccc1)Nc1cc2[nH]nc(C3CC3)c2cn1` [Example 142]: the half-inhibitory concentration (IC50) was 17.4 nM.
On the same count and under the same terms, under `CCCCNC(=O)Nc1cc2[nH]nc(C3CCC3)c2cn1` [Example 143, 1-butyl-3-(3-cyclobutyl-1H-pyrazolo[4,3-c]pyridin-6-yl)urea] stands 39.7 nM; under `C[C@@H](NC(=O)Nc1cc2[nH]nc(C3CCC3)c2cn1)c1ccc(F)cc1` [Example 144], 3.46 nM; under `C[C@@H](NC(=O)Nc1cc2[nH]nc(C3CCC3)c2cn1)c1ccccc1` [Example 145], 2.44 nM.
Same read-out and setting: to `O=C(NCc1ccc(F)cc1)Nc1cc2[nH]nc(C3CCC3)c2cn1` [Example 146] belongs 12.9 nM; to `O=C(NCc1ccccc1)Nc1cc2[nH]nc(C3CCC3)c2cn1` [Example 147], 11.2 nM.

The same assay, now with this note: read-out: AERK2 IC50 (Active human ERK2 Activity Assay).
For `C[C@@H](NC(=O)Nc1cc2[nH]nc(-c3ccc4c(c3)OCCO4)c2cn1)c1ccccc1` [Example 88, 1-[3-(2,3-dihydro-1,4-benzodioxin-6-yl)-1H-pyrazolo[4,3-c]pyridin-6-yl]-3-[(1R)-1-phenylethyl]urea], the IC50 was in the range of 0.2 to 1.7 nM.
On the same count and under the same terms, to `C[C@@H](NC(=O)Nc1cc2[nH]nc(-c3ccc(S(C)(=O)=O)cc3)c2cn1)c1ccccc1` [Example 89, 1-{3-[4-(methylsulfonyl)phenyl]-1H-pyrazolo[4,3-c]pyridin-6-yl}-3-[(1R)-1-phenylethyl]urea] belongs 0.2 to 1.7 nM.
Still for that read-out and setting: to `Cc1cc(-c2n[nH]c3cc(NC(=O)N[C@H](C)c4ccccc4)ncc23)cnn1` [Example 91, 1-[3-(6-methylpyridazin-4-yl)-1H-pyrazolo[4,3-c]pyridin-6-yl]-3-[(1R)-1-phenylethyl]urea] belongs 0.2 to 1.7 nM.
Still for that read-out and setting: to `C[C@@H](NC(=O)Nc1cc2[nH]nc(-c3cc[n+]([O-])cc3)c2cn1)c1ccccc1` [Example 93, 1-[3-(1-oxidopyridin-4-yl)-1H-pyrazolo[4,3-c]pyridin-6-yl]-3-[(1R)-1-phenylethyl]urea] belongs 0.2 to 1.7 nM; to `Cc1cc(-c2n[nH]c3c(F)c(NC(=O)N[C@H](C)c4ccccc4)ncc23)ccn1` [Example 95, 1-[7-fluoro-3-(2-methylpyridin-4-yl)-1H-pyrazolo[4,3-c]pyridin-6-yl]-3-[(1R)-1-phenylethyl]urea], 0.2 to 1.7 nM.

For the origin of these results see patent US9023865B2, “Compounds that are ERK inhibitors” (Merck Sharp & Dohme Corp., priority 2011, dated 2015).
